Measured values taken from paper PMC10288505, “Photoswitchable Calixarene Activators for Controlled Peptide Transport across Lipid Membranes” (Journal of the American Chemical Society, 2023).

What was measured:
HeLa cells [1] = experiment: Confocal fluorescence microscopy of TAMRA-R8 cellular uptake; format: cell-based; conditions: TAMRA-R8 3 μM with activator (10, 50, 100, 250 nM), 25 min at 37 °C
Method: (§1) Success in artificial vesicle assays encouraged us to conduct transport experiments of fluorescently labeled peptides in living cells (Figure 5). We first employed confocal fluorescence microscopy to evaluate counterion activator 2 for the intracellular transport of a carboxytetramethylrhodamine-labeled R8 peptide (TAMRA-R8) into the cytosol of HeLa cells. Cationic peptides usually remain trapped inside the endosomes when incubated with cells at low μM concentrations.[32],[44] […] The cytometry experiments validated the E isomer selective transport and indicated a four-fold intracellular delivery enhancement (Figure 5C and Figure S52). […]
Figure 5 (A) Schematic representation of oligoarginine intracellular delivery by both isomers of 2. (B) Confocal fluorescence microscopy images of the cellular uptake of 3 μM TAMRA-R8 (in red) facilitated by E-2/Z-2. […] (C) Fluorescence intensity of HeLa cells incubated with 3 μM TAMRA-R8 in the presence of different E-2/Z-2 concentrations, measured by flow cytometry. […]
(§2) Confocal microscopy assays. […] Fluorescence of Hoechst was excited with the 405 nm laser and the emission was detected at 450/50 nm; for the TAMRA fluorescence, an excitation of 561 nm was used while the emission was detected at 620/60 nm. […]
(§3) Flow cytometry assays. […] TAMRA fluorescence was excited at 532 nm (green laser) and […]

HeLa cells [2] = experiment: Flow cytometry quantification of TAMRA-R8 uptake; format: cell-based; conditions: TAMRA-R8 3 μM, activator 10-250 nM, 25 min, flow cytometry mean fluorescence intensity, quadruplicate
Method: as §1, §2, §3
measured on a Guava easyCyte BG HT collecting the emission at 583/26 nm (Yellow-G channel), using InCyte v3.2 (GuavaSoft, Millipore). Cells with typical FSC and SSC parameters were selected and the mean fluorescence intensity was calculated for each sample. Each condition was measured in quadruplicate. […]

Compound: CCCCc1ccc(/N=N/c2ccc(OCCCOc3c4cc(S(=O)(=O)[O-])cc3Cc3cc(S(=O)(=O)[O-])cc(c3O)Cc3cc(S(=O)(=O)[O-])cc(c3O)Cc3cc(S(=O)(=O)[O-])cc(c3O)C4)cc2)cc1.[Li+].[Li+].[Li+].[Li+] [E-2]
- Intracellular TAMRA-R8 fluorescence in the presence of activator (HeLa cells [1]): strong diffuse fluorescence signal in the cytosol, nucleus, and nucleolus
- Intracellular delivery enhancement of TAMRA-R8, E isomer relative to Z isomer (HeLa cells [2]): four-fold
